# Source: patent US20100267561A1, “HERBICIDAL PYRIDAZINONE DERIVATIVES” (priority 2007, published 2010)
# Tests used:
# Format in all cases: in vivo
# corn (Zea mays) = experiment: Test A pre-/postemergence plant response
# In short: (§1)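 Greenhouse pot test: loam–sand soil; pre- and postemergence sprays applied same day; post plants 2–10 cm, 1–2 leaves. Readout ~10 d, visual % injury vs untreated (0 = none, 100 = complete control).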
# [1] = tested on: wheat (Triticum aestivum); experiment: Test A pre-/postemergence plant response
# In short: as §1
# [2] = tested on: giant foxtail (Setaria faberi); experiment: Test A pre-/postemergence plant response
# In short: as §1
# [3] = tested on: pigweed (Amaranthus retroflexus); experiment: Test A pre-/postemergence plant response
# In short: as §1
# [4] = tested on: large crabgrass (Digitaria sanguinalis); experiment: Test A pre-/postemergence plant response
# In short: as §1
# [5] = tested on: barnyardgrass (Echinochloa crus-galli); experiment: Test A pre-/postemergence plant response
# In short: as §1
# [6] = tested on: green foxtail (Setaria viridis); experiment: Test B pre-/postemergence plant response
# Text: (§2) Seeds of plant species selected from blackgrass (Alopecurus myosuroides), downy bromegrass (Bromus tectorum), green foxtail (Setaria viridis), Italian ryegrass (Lolium multiflorum), wheat (Triticum aestivum), wild oat (Avena fatua), catchweed bedstraw (Galium aparine), bermudagrass (Cynodon dactylon), surinam grass (Brachiaria decumbens), cocklebur (Xanthium strumarium), corn (Zea mays), large crabgrass (Digitaria sanguinalis), woolly cupgrass (Eriochloa villosa), giant foxtail (Setaria faberii), goosegrass (Eleusine indica), johnsongrass (Sorghum halepense), kochia (Kochia scoparia), lambsquarters (Chenopodium album), morningglory (Ipomoea coccinea), eastern black (E.B.) nightshade (Solanum ptycanthum), yellow nutsedge (Cyperus esculentus), pigweed (Amaranthus retroflexus), common ragweed (Ambrosia elation), Russian thistle (Salsola iberica), soybean (Glycine max), common (oilseed) sunflower (Helianthus annuus), and velvetleaf (Abutilon theophrasti) were planted and treated preemergence with test chemicals formulated in a non-phytotoxic solvent mixture which included a surfactant.
# (§3) At the same time, plants selected from these crop and weed species and also winter barley (Hordeum vulgare), canarygrass (Phalaris minor), chickweed (Stellaria media) and windgrass (Apera spica-venti) were treated with postemergence applications of some of the test chemicals formulated in the same manner. Plants ranged in height from 2 to 18 cm (1- to 4-leaf stage) for postemergence treatments.
# (§4) Plant species in the flooded paddy test consisted of rice (Oryza sativa), umbrella sedge (Cyperus difformis), ducksalad (Heteranthera limosa) and barnyardgrass (Echinochloa crus-galli) grown to the 2-leaf stage for testing. At time of treatment, test pots were flooded to 3 cm above the soil surface, treated by application of test compounds directly to the paddy water, and then maintained at that water depth for the duration of the test. Treated plants and controls were maintained in a greenhouse for 13 to 15 days, after which time all species were compared to controls and visually evaluated. Plant response ratings, summarized in Table B, are based on a scale of 0 to 100 where 0 is no effect and 100 is complete control. A dash (-) response means no test result.
# [7] = tested on: wheat (Triticum aestivum); experiment: Test B pre-/postemergence plant response
# Text: as §2, §3, §4
# [8] = tested on: johnsongrass (Sorghum halepense); experiment: Test B pre-/postemergence plant response
# Text: as §2, §3, §4
# [9] = Postemergence, 31 g ai/ha, 0 to 100 scale (0 no effect, 100 complete control)
# [10] = Postemergence, 125 g ai/ha, 0 to 100 scale, 0 no effect, 100 complete control
# [11] = Preemergence, 31 g ai/ha, 0 to 100 scale, 0 is no effect, 100 is complete control
# [12] = Preemergence, 125 g ai/ha, 0 to 100 scale (0 no effect, 100 complete control)
# [13] = 8 g ai/ha, postemergence, 0-100 scale
# [14] = Postemergence, 31 g ai/ha, scale 0 to 100
# [15] = Postemergence, 62 g ai/ha, scale 0 to 100, 0 no effect, 100 complete control
# [16] = Preemergence, 31 g ai/ha, scale 0 to 100 (0 no effect, 100 complete control)
# [17] = Preemergence, 62 g ai/ha, 0 to 100 scale, 0 no effect, 100 complete control
# [18] = Preemergence, 8 g ai/ha, scale 0 to 100
# [19] = Preemergence, 16 g ai/ha, scale 0 to 100
# [20] = 16 g ai/ha, postemergence, 0-100 scale
smiles,measurement,setting,value
Cc1cc(-c2ccc(Cl)cc2)nn1-c1c(OC(=S)N(C)C)cnn(C)c1=O [Compound 69],"Plant response rating, Corn",corn (Zea mays); [9],60
same,"Plant response rating, Corn",corn (Zea mays); [10],90
same,"Plant response rating, Corn",corn (Zea mays); [11],20
same,"Plant response rating, Corn",corn (Zea mays); [12],30
same,"Plant response rating, Wheat",[1]; [9],0
same,"Plant response rating, Wheat",[1]; [10],30
same,"Plant response rating, Wheat",[1]; [11],0
same,"Plant response rating, Wheat",[1]; [12],0
same,"Plant response rating, Foxtail, Giant",[2]; [9],90
same,"Plant response rating, Foxtail, Giant",[2]; [10],100
same,"Plant response rating, Foxtail, Giant",[2]; [11],20
same,"Plant response rating, Foxtail, Giant",[2]; [12],90
same,"Plant response rating, Pigweed",[3]; [9],0
same,"Plant response rating, Pigweed",[3]; [10],0
same,"Plant response rating, Pigweed",[3]; [11],0
same,"Plant response rating, Pigweed",[3]; [12],0
same,"Plant response rating, Crabgrass, Large",[4]; [9],40
same,"Plant response rating, Crabgrass, Large",[4]; [10],80
same,"Plant response rating, Crabgrass, Large",[4]; [11],0
same,"Plant response rating, Crabgrass, Large",[4]; [12],90
same,"Plant response rating, Barnyardgrass",[5]; [9],90
same,"Plant response rating, Barnyardgrass",[5]; [10],100
same,"Plant response rating, Barnyardgrass",[5]; [11],20
same,"Plant response rating, Barnyardgrass",[5]; [12],70
same,"Foxtail, Green plant response rating",[6]; [13],60
same,"Plant response rating, Foxtail, Green","[6]; Postemergence, 16 g ai/ha, scale 0 to 100",80
same,"Plant response rating, Foxtail, Green",[6]; [14],90
same,"Plant response rating, Foxtail, Green",[6]; [15],95
same,"Plant response rating, Foxtail, Green",[6]; [16],40
same,"Plant response rating, Foxtail, Green",[6]; [17],100
same,"Foxtail, Green plant response rating",[6]; [18],0
same,"Foxtail, Green plant response rating",[6]; [19],0
same,Wheat plant response rating,[7]; [13],0
same,Wheat plant response rating,[7]; [20],35
same,"Plant response rating, Wheat",[7]; [14],40
same,"Plant response rating, Wheat",[7]; [15],80
same,"Plant response rating, Wheat",[7]; [16],0
same,"Plant response rating, Wheat",[7]; [17],0
same,Wheat plant response rating,[7]; [19],0
same,Johnsongrass plant response rating,[8]; [13],60
same,Johnsongrass plant response rating,[8]; [20],65
same,"Plant response rating, Johnsongrass",[8]; [14],70
same,"Plant response rating, Johnsongrass",[8]; [15],75
same,"Plant response rating, Johnsongrass",[8]; [16],0
same,"Plant response rating, Johnsongrass",[8]; [17],0
same,Johnsongrass plant response rating,[8]; [18],0
same,Johnsongrass plant response rating,[8]; [19],0
